Test results taken from US7041638B2, “Surfactant prevention of vaginitis and lung complications from cancer chemotherapy” (The Penn State Research Foundation, priority 2001, dated 2006).
Where two headings read alike, the source gives them in different places.

Legend:
Type in all cases: cell-based, human
[1] = test system: THP-1 cells; assay: Cytokine mRNA in THP-1 cells by ribonuclease protection assay (RPA); conditions: for relative intensity of TNF-α mRNA / IL-8 mRNA level: SP-A 10 μg/ml and/or bleomycin 5 mU/ml, normalized to L32; for relative intensity of TNF-α mRNA: FIG. 4A; for IL-8 mRNA level: 4 h, FIG. 4B
Method: (§1) After differentiation with 10^−8 M of vitamin D3 for 72 h, THP-1 cells were pelleted and washed as described above. Cells at a density of 2×10^6 cells/ml were incubated at 24 well culture plates. For dose-response study, cells were stimulated with bleomycin at concentrations ranging from 0–100 mU/ml. Time-dependent secretion of cytokines following bleomycin treatment was studied from 0–24 h with 5 and 50 mU/ml of bleomycin. In experiments where the combined effects of SP-A and bleomycin were examined, SP-A (10 μg/ml) and bleomycin (5 or 50 mU/ml) were added to cells simultaneously, unless otherwise noted. After treatment, the culture medium was collected at 4 h or 6 h for the ELISA assay of cytokine production and cells were harvested at 2 h or 4 h for cytokine mRNA analysis.
Total RNA was isolated from THP-1 cells at 2 h or 4 h after treatment by using Rneasy Mini Kits (QIAGEN) according to the protocol of the RNeasy Mini Handbook. Cytokine mRNA quantification was performed by ribonuclease protection assay (RPA). RiboQuant™ Ribonuclease RPA Starter Package and a Customized Human Template Set (Pharmingen) were used to analyze TNF-α, IL-1β, and IL-8 mRNA in one assay. The customized template set contains DNA templates that can be used for T7 RNA polymerase-directed synthesis of α-^32P-UTP-labeled, anti-sense RNA probes. These can be hybridized to TNF-α, IL-1β, and IL-8 mRNA. Templates for the L32 and GAPDH housekeeping genes were also included to allow for normalization of sampling or technical error. Aliquots of 2 μg of total RNA were hybridized with radiolabeled probes at 56° C. for 16 h. RNase treatment followed, resulting in degradation of single-stranded RNA and free probes. After inactivation and precipitation, protected probes were resolved by a 5% polyacrylamide-urea sequence gel electrophoresis and visualized by autoradiography. Densities of the protected bands were quantified by soft laser densitometry. The mRNA level is expressed as the ratio of the densitometric value of each cytokine mRNA to that of the L32 or GAPDH mRNA.

[2] = test system: THP-1 cells; assay: Cytokine production by differentiated THP-1 cells after SP-A, bleomycin or Ara-C (ELISA); conditions: for TNF-α level in culture medium: mean±SEM, FIG. 3A
Method: (§2) The THP-1 cell line was obtained from the American Type Culture Collection. Cells were grown in RPMI 1640 medium (Sigma) with 0.05 mM 2-mercaptoethanol containing 10% fetal calf serum (FCS; Summit Biotechnology) at 37° C. in an atmosphere of 5% CO2. The cells were split periodically and used at passages 8–15 in the various experiments. After differentiation with 10^−8 M Vitamin D3 for 72 h, cells were pelleted and washed with cold PBS. The cell pellet was then resuspended in complete RPMI 1640 medium with 10% FCS at a density of 2×10^6 cells/ml in 24-well culture plates, and exposed to bleomycin and SP-A. Cell viability was determined by trypan blue exclusion. […] Incubations were terminated by pelleting the cells. Supernatants and/or cell pellet were stored at −80° C. until assayed.
as §1
Cytosine arabinoside (Ara-C, Cytosar-U, Pharmacia & Upjohn) was included in some experiments to confirm the specificity of the effect of bleomycin on proinflammatory cytokine production by THP-1 cells. Ara-C is another antineoplastic agent with known cytotoxicity. […] Ara-C, at concentrations ranging from 0.1 to 5 mM in culture medium, was used for evaluating the effect of Ara-C on TNF-α. The conditions employed in the Ara-C experiments were the same as those in bleomycin studies except that only a 4 h time point was done.
The ELISA assays for TNF-α, IL-8, and IL-1β (OptEIA Human ELISA Sets, Pharmingen) were performed according to the instructions recommended by the manufacturer. The ELISA kits were capable of measuring levels of 7.8–500 pg/ml for TNF-α, 6.2–400 pg/ml for IL-8 and 20–1000 pg/ml for IL-1β. A reference curve for each of these cytokines was obtained by plotting the concentration of several dilutions of standard protein versus the corresponding absorbance.

[3] = test system: THP-1 cells; assay: Cell viability by trypan blue exclusion
Method: as §2

[4] = SP-A 10 μg/ml and/or bleomycin 5 mU/ml, 4 h

Compound	relative intensity of TNF-α mRNA ([1]; 2 h)	IL-8 mRNA level [1]	TNF-α level in culture medium [2, 4]	effect on the viability of THP-1 cells [3]	relative intensity of IL-1β mRNA ([1]; 2 h, SP-A 10 μg/ml, bleomycin 5 mU/ml, LPS 0.1 ng/ml)	lowest bleomycin concentration that increased TNF-α level ([2]; 4 h, dose range 0–100 mU/ml, FIG. 1A)	lowest bleomycin concentration that increased IL-8 level ([2]; 4 h, dose range 0–100 mU/ml, FIG. 1B)	bleomycin concentration needed to increase IL-1β level significantly ([2]; 6 h, dose range 0–100 mU/ml, FIG. 1C)	time to maximum TNF-α level ([2]; bleomycin 5, 50 mU/ml, depending on dose, FIG. 2A)	time at which increase of TNF-α levels was detected ([2]; bleomycin 5, 50 mU/ml, 0–24 h, FIG. 2A)	time at which TNF-α returned to background levels ([2]; bleomycin 5, 50 mU/ml, FIG. 2A)	time to maximal IL-8 level ([2]; bleomycin 5, 50 mU/ml, FIG. 2B)	time to peak IL-1β level ([2]; bleomycin 5, 50 mU/ml, FIG. 2C)	TNF-α level in culture medium ([2]; bleomycin 50 mU/ml with or without SP-A 10 μg/ml, 4 h)	effect on the viability of THP-1 cells ([3]; conditions employed in this study)	TNF-α level after Ara-C treatment versus control ([2]; Ara-C 0.1 to 5 mM, 4 h, FIG. 1D)
SP-A: native human surfactant protein A purified from bronchoalveolar lavage of alveolar proteinosis patients	0.51±0.27	1.26±0.14	86.6 ± 11.5 pg/mL	neither bleomycin nor SP-A appeared to have any effect	–	–	–	–	–	–	–	–	–	–	–	–
bleomycin	0.74±0.20	1.02±0.16	45.9 ± 10.6 pg/mL	–	Very low levels	0.5 mU/ml	0.5 mU/ml	50 mU/ml	4 to 6 h	3 h	24 h	around 5 h	10 h	82.1 ± 17.3 pg/mL	neither bleomycin nor SP-A appeared to have any effect	–
Nc1ccn([C@@H]2O[C@H](CO)[C@@H](O)[C@@H]2O)c(=O)n1 [Ara-C, Cytosine arabinoside]	–	–	–	–	–	–	–	–	–	–	–	–	–	–	–	did not differ from that of control
